Key:
[1] = target: recombinant human ASK1 (hASK1) catalytic domain (Homo sapiens (Human), UniProt Q99683); assay: ASK1 enzymatic assay (ADP-Glo Kinase Assay); assay type: biochemical; settings: for IC50: ADP production, MKK6 300 nM substrate, ATP 100 uM, mean ± standard deviation; for Efficacy (%): hASK1 enzymatic assay, relative to standard inhibitor (100%) and DMSO vehicle (0%)
From the text: The purpose of this assay is to determine the effect of ASK1 inhibitors on the production of ADP by ASK1. The recombinant human ASK1 (hASK1) catalytic domain tagged with Glutathione S-transferase is used, and histidine-tagged full-length human MAP kinase kinase 6 (MKK6) and ATP are the substrate and cofactor, respectively.
The assay is done using an ADP-Glo™ Kinase Assay Kit (Promega, Catalog #V9102) according to the manufacturer's protocol with the following modifications. Briefly, hASK1 (0.25 nM) and MKK6 (300 nM) in a buffer (10 mM MOPS pH 7.0; 10 mM Mg-Acetate; 1 mM DTT; 0.025% NP-40; 0.05% BSA; 1.5% glycerol) are incubated with ASK1 inhibitors at varying concentrations ranging from 10.00 uM to 0.17 nM for 15 minutes, followed by incubation with ATP (100 uM) for 30 minutes at room temperature. ADP-Glo™ Reagent is added to terminate the kinase reaction and deplete the remaining ATP. The Kinase Detection Reagent is then added to convert ADP to ATP. The newly synthesized ATP is measured using a luciferase/luciferin reaction, and the luminescence determined by Envision (PerkinElmer). The luminescence intensities are analyzed by GeneData, and fit to a 4 parameter dose response-inhibitor logistics curve to determine IC50 values, using the effects of 5-(4-cyclopropyl-1H-imidazol-1-yl)-2-fluoro-4-methyl-N-{6-[4-(propan-2-yl)-4H-1,2,4-triazol-3-yl]pyridin-2-yl}benzamide as a standard and DMSO vehicle for 100% and 0% inhibition, respectively.

human ASK1 = human ASK1 (Homo sapiens (Human), UniProt Q99683); assay: ASK1 autophosphorylation (Thr838) assay in HEK293 cells overexpressing human ASK1; assay type: cell-based; settings: for IC50: H2O2-stimulated (1 mM, 10 min) ASK1 autophosphorylation at Thr838, HEK293 cells, HTRF, mean ± standard deviation, read-out: HEK pASK1 IC50; for Efficacy (%): HEK pASK1 assay, relative to standard inhibitor (100%) and DMSO vehicle (0%)
Sequence of human ASK1 (Q99683 whole entry): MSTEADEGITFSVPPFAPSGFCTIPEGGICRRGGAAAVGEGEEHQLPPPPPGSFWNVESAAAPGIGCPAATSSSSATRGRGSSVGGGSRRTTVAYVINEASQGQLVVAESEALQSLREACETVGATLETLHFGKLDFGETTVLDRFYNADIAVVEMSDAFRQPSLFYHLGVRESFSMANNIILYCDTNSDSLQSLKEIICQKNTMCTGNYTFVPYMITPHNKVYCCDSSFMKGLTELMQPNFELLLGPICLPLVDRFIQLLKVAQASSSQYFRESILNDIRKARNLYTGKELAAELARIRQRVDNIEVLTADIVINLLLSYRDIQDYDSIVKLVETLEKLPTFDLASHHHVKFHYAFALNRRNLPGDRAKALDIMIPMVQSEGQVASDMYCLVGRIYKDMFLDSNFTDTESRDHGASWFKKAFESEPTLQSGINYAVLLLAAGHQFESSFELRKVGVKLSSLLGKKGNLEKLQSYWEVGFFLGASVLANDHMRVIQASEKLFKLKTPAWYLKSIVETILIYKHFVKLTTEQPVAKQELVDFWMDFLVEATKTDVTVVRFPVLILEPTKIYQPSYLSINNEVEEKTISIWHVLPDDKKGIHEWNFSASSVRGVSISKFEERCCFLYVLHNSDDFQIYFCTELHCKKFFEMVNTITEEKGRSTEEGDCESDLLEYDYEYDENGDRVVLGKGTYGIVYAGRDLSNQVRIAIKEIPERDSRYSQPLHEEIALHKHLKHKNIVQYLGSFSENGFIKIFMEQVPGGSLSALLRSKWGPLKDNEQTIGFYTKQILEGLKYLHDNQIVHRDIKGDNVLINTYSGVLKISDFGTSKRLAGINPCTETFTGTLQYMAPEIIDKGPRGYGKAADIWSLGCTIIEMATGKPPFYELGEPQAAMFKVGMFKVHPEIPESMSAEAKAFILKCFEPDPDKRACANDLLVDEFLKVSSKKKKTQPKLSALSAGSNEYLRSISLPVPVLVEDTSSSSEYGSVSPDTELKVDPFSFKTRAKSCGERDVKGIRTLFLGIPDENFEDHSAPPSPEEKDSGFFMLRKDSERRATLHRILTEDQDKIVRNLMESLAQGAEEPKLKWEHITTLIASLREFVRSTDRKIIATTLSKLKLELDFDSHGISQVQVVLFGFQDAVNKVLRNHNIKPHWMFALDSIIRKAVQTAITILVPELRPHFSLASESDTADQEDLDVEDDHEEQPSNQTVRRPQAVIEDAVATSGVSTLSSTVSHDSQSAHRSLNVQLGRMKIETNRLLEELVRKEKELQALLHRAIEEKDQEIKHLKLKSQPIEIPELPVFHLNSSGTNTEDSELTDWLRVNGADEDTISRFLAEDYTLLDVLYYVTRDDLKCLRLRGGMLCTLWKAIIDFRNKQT

Sequence of recombinant human ASK1 (hASK1) catalytic domain (Q99683 680-938): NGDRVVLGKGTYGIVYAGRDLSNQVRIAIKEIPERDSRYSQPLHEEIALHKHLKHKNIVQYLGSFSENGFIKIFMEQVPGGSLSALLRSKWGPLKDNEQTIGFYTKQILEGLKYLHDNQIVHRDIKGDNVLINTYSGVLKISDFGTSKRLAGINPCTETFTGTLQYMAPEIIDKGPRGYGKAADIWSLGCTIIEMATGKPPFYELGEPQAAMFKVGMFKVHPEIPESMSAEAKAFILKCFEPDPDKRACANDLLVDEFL

Structure (SMILES) | IC50 [1] | Efficacy (%) [1] | IC50 (human ASK1) | Efficacy (%) (human ASK1)
Cc1cc2c(cc1-n1cnc(C3CC3)c1)C(=O)N(c1cccc(-c3nncn3C(C)C)n1)CC2 [Example 2, 7-(4-Cyclopropylimidazol-1-yl)-2-[6-(4-isopropyl-1,2,4-triazol-3-yl)-2-pyridyl]-6-methyl-3,4-dihydroisoquinolin-1-one] | 1.8 ± 0.4 nM | 100.5% | 13.1 ± 2.8 nM | 103%
CC(C)n1cnnc1-c1cccc(N2CCc3ncc(-n4cnc(C5CC5)c4)cc3C2=O)n1.Cl [Example 3, 3-(4-Cyclopropylimidazol-1-yl)-6-[6-(4-isopropyl-1,2,4-triazol-3-yl)-2-pyridyl]-7,8-dihydro-1,6-naphthyridin-5-one; hydrochloride] | 3.8 ± 0.9 nM | 100.1% | 31.5 ± 6.6 nM | 107%
Cc1cc2c(cc1-c1cnn(C(C)C)c1)C(=O)N(c1cccc(-c3nncn3C(C)C)n1)CC2 [Example 1, 7-(1-Isopropylpyrazol-4-yl)-2-[6-(4-isopropyl-1,2,4-triazol-3-yl)-2-pyridyl]-6-methyl-3,4-dihydroisoquinolin-1-one] | 3.6 ± 0.8 nM | 101% | 38.6 ± 2.4 nM | 107%
CC(C)n1cc(-c2cnc3c(c2)C(=O)N(c2cccc(-c4nncn4C(C)C)n2)CC3)cn1 [Example 4, 3-(1-Isopropylpyrazol-4-yl)-6-[6-(4-isopropyl-1,2,4-triazol-3-yl)-2-pyridyl]-7,8-dihydro-1,6-naphthyridin-5-one] | 4.2 ± 0.8 nM | 99.8% | 41.9 ± 0.5 nM | 105%
